Assay results: patent US8021853B2, “Inhibition of the β3 subunit of L-type Ca2+ channels” (priority 2002, dated 2011)

How the values were obtained:
[1] = test system: islets from β3−/− mice compared to wild type mice; assay: increase in [Ca2+]i on addition of 2.5 mM extracellular Ca2+ after depletion of the Ca2+-pool; format: cell-based, mouse; conditions: 2 μM; Ca2+-pool depleted
Method: (§1) The whole-cell configuration of the patch-clamp technique was performed as follows: pipettes were pulled from borosilicate glass, coated with Sylgard near the tips and fire-polished. The pipettes ([…]) were filled with a solution containing 150 mM N-methyl-D-glucamine, 125 mM HCl, 1.2 mM MgCl2, 10 mM EGTA, 5 mM HEPES and 3 mM MgATP. pH was adjusted to 7.15 with KOH. Bath buffer contained (in mM) NaCl 138, KCl 5.6, MgCl2 1.2, CaCl2 10, HEPES 5 and pH 7.4. Islets or isolated cells were loaded with 2 μM fura 2/AM for 30 min in KRBB. For measurements of CCh (carbamylcholine) effects in Ca^2+-free medium, KRBB containing no Ca^2+ and 100 μM EGTA was used. After loading, a single islet or cells attached to a coverslip were transferred to an open perfusion chamber and maintained at 37° C. Measurements of 340/380 nm fluorescence ratio, reflecting [Ca^2+]i, were done as described in the art (Zaitsev, S. V. et al. 1995, Proc. Natl. Acad. Sci. USA 92:9712-9716). Time constant of decay in [Ca^2+]i was calculated with a double exponential decay equation using quasi Newton algorithm (Statistica for Windows, v. 5.0, StatSoft, Inc., USA). For measurements of [Ca^2+]ER, the low affinity Ca^2+-sensitive fluorescent dye X-Rhod-5N (Molecular Probes) was employed. […] were incubated with 5 μM X-Rhod-5N/AM for 1 hour at 4° C. to ensure dye loading into intracellular compartments. […]

[2] = test system: islets from both β3−/− and wild type mice; assay: carbamylcholine-induced activation of PLC, [Ca2+]i in islets; format: cell-based, mouse
Method: as §1

[3] = test system: islets from both wild type and β3−/− mice; assay: glucose-induced [Ca2+]i oscillations in islets/β-cells (fura-2 340/380 nm fluorescence ratio); format: cell-based, mouse
Text: Changes in [Ca^2+]i were next evaluated. […] The changes in [Ca^2+]i subsequent to the initial increase were categorized into three groups: slow oscillations (period of approximately 160 seconds), fast oscillations (period of approximately 10 seconds) and no oscillations. In wild type mice, 43 recordings (43 islets) were made.

[4] = test system: islets from control and β3−/− mice; assay: insulin release in response to glucose from isolated islets; format: cell-based, mouse; conditions: islets treated with thapsigargin
Method: Islets of Langerhans were isolated by collagenase digestion and maintained overnight in RPMI 1640 culture medium (Flow Laboratories, UK). Single cells, obtained by shaking the islets in Ca^2+-free medium, were seeded into plastic dishes. For measurements of insulin release, islets were pre-incubated in Krebs-Ringer bicarbonate buffer (KRBB) for 30 min at 37° C. Groups of 3 islets were transferred to tubes containing 0.3 ml KRBB with test substances and incubated for another 30 min at 37° C. The incubation was terminated by cooling the samples on ice. Samples were stored at −20° C. until insulin was analyzed.
To further verify this notion, changes in [Ca^2+]i and insulin exocytosis were measured simultaneously, applying a depolarizing pulse protocol mimicking an oscillatory versus a monophasic increase in [Ca^2+]i.

[5] = test system: islets from both wild type and β3−/− mice; conditions: treatment of β-cells; Roe et al. 1998; cited from earlier work

In the case of `[Gd]` [gadolinium], the “effect on the increase in [Ca2+]i after addition of 2.5 mM extracellular Ca2+” value [1] is reported as “did not affect”.

In the case of `C[N+](C)(C)CCOC(N)=O.[Cl-]` [Carbamylcholine, carbamylcholine], the “effect on [Ca2+]i” value [2] is reported as “produced a transient increase in [Ca^2+]i”.

In the case of `NCCOB(c1ccccc1)c1ccccc1` [2-APB, 2-aminoethoxydiphenyl borane], the “effect on [Ca2+]i oscillations (blocking the InsP3-receptor)” value ([3]; β-cells from β3−/− mice) is reported as “transformed [Ca^2+]i oscillations from fast into slow”.

For `C/C=C(/C)C(=O)O[C@H]1C(C)=C2[C@H]([C@@H]1OC(=O)CCCCCCC)[C@@](C)(OC(C)=O)C[C@H](OC(=O)CCC)[C@@]1(O)[C@H]2OC(=O)[C@@]1(C)O` [thapsigargin], the “effect on glucose-induced oscillations in [Ca2+]i” value ([3]; 1 μM, 30 min preincubation, islets from both wild type and β3−/− mice) is given as “prevented glucose-induced oscillations in [Ca^2+]i”, the “insulin release in response to glucose, control versus β3−/− mice” value [4] is given as “no different” and the “effect on [Ca2+]i oscillations” value [5] is given as “transform [Ca^2+]i oscillations into a monophasic elevation in [Ca^2+]i”.
